In US20230203043A1, “NOVEL IMIDAZOPYRAZINE DERIVATIVES” (Hoffmann-La Roche Inc., priority 2020, published 2023):
Where a name gives a salt, the structure may show the parent alone.

What follows are compounds tested on Acinetobacter baumannii ATCC17961 (assay: Antimicrobial susceptibility testing: 90% growth inhibitory concentration (IC90) determination in Iso-Sensitest broth, OD600 growth). Settings: Acinetobacter baumannii, ATCC17961, 16 h, read-out: A. baumannii ATCC 17961 IC90 (uM), strain ATCC 17961, OD600 growth over 16 h.
Assay type: cell-based
Summary of the method: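 Each strain, at about 5×10^(5) CFU/ml, was incubated with twofold dilutions of compound at 35±2° C for 16 h, and IC90 was calculated from kinetic optical density measured at 600 nm during logarithmic growth.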

Row | Compound | IC90 [µM]
1 | N#CCn1cc(-c2cnc3c(Nc4ccc(C(=O)N5CCN(C(=O)[C@H]6C[C@H](N)C6)CC5)c(Cl)c4)nccn23)c(C(F)(F)F)n1 [Example 12, 2-[4-[8-[4-[4-(3-aminocyclobutanecarbonyl)piperazine-1-carbonyl]-3-chloroanilino]imidazo[1,2-a]pyrazin-3-yl]-3-(trifluoromethyl)pyrazol-1-yl]acetonitrile formate] | 0.176
2 | N[C@@H]1CC[C@H](C(=O)N2CCN(C(=O)c3ccc(Nc4nccn5c(-c6c[nH]nc6C(F)(F)F)cnc45)cc3Cl)CC2)C1 [Example 342, [4-[(1S,3R)-3-aminocyclopentanecarbonyl]piperazin-1-yl]-[2-chloro-4-[[3-[3-(trifluoromethyl)-1H-pyrazol-4-yl]imidazo[1,2-a]pyrazin-8-yl]amino]phenyl]methanone formate] | 0.228
3 | Cc1cc(Nc2nccn3c(-c4cn(CC#N)nc4C(F)(F)F)cnc23)ccc1C(=O)N1CCN(C(=O)N[C@H]2CNC[C@@H]2O)CC1 [Example 376, 4-[4-[[3-[1-(cyanomethyl)-3-(trifluoromethyl)pyrazol-4-yl]imidazo[1,2-a]pyrazin-8-yl]amino]-2-methylbenzoyl]-N-[(3S,4S)-4-hydroxypyrrolidin-3-yl]piperazine-1-carboxamide formate] | 0.43
4 | Cc1cc(Nc2nccn3c(-c4cn(C)nc4C(F)(F)F)cnc23)ccc1C(=O)N1CCN(C(=O)N[C@@H]2CNC[C@H]2O)CC1 [Example 469, formic acid; N-[(3R,4R)-4-hydroxypyrrolidin-3-yl]-4-[2-methyl-4-[[3-[1-methyl-3-(trifluoromethyl)pyrazol-4-yl]imidazo[1,2-a]pyrazin-8-yl]amino]benzoyl]piperazine-1-carboxamide] | 0.705
5 | N[C@H]1C[C@H]1C(=O)N1CCN(C(=O)c2ccc(Nc3nccn4c(-c5c[nH]nc5C(F)(F)F)cnc34)cc2Cl)CC1 [Example 225, [4-[(1R,2S)-2-aminocyclopropanecarbonyl]piperazin-1-yl]-[2-chloro-4-[[3-[3-(trifluoromethyl)-1H-pyrazol-4-yl]imidazo[1,2-a]pyrazin-8-yl]amino]phenyl] methanone formate] | 1.81

Same assay, conditions: Acinetobacter baumannii, ATCC17961, 16 h, strain ATCC 17961, OD600 growth over 16 h, read-out: A. baumannii ATCC 17961 IC90

Row | Compound | IC90 [µM]
6 | CCCn1cc(-c2cnc3c(Nc4ccc(C(=O)NCCOCCN)c(CC)c4)nccn23)c(C(F)F)n1 [Example 346, N-[2-(2-aminoethoxy)ethyl]-4-[[3-[3-(difluoromethyl)-1-propylpyrazol-4-yl]imidazo[1,2-a]pyrazin-8-yl]amino]-2-ethylbenzamide] | 0.164
7 | O=C(NC1CCNCC1)c1ccc(Nc2nccn3c(-c4c[nH]nc4C(F)(F)F)cnc23)cc1Cl [Example 413, 2-chloro-N-piperidin-4-yl-4-[[3-[3-(trifluoromethyl)-1H-pyrazol-4-yl]imidazo[1,2-a]pyrazin-8-yl]amino]benzamide] | 2.2
8 | CCc1cc(Nc2nccn3c(-c4cn(CC(F)F)nc4C(F)(F)F)cnc23)ccc1C(=O)NCCOCC(C)(C)N [Example 50, N-[2-(2-amino-2-methylpropoxy)ethyl]-4-[[3-[1-(2,2-difluoroethyl)-3-(trifluoromethyl)pyrazol-4-yl]imidazo[1,2-a]pyrazin-8-yl]amino]-2-ethylbenzamide] | 0.121
9 | CCc1cc(Nc2nccn3c(-c4cn(CC(F)F)nc4C(F)(F)F)cnc23)ccc1C(=O)N[C@H](C)CNC(=O)[C@@H]1CCCN1 [Example 649, (S)-N-((R)-2-(4-((3-(1-(2,2-difluoroethyl)-3-(trifluoromethyl)-1H-pyrazol-4-yl)imidazo[1,2-a]pyrazin-8-yl)amino)-2-ethylbenzamido)propyl)pyrrolidine-2-carboxamide] | 0.247
10 | N#CCn1cc(-c2cnc3c(Nc4ccc(C(=O)NCCNCC(=O)NCCCN)c(Cl)c4)nccn23)c(C(F)(F)F)n1 [Example 819, N-(2-((2-((3-aminopropyl)amino)-2-oxoethyl)amino)ethyl)-2-chloro-4-((3-(1-(cyanomethyl)-3-(trifluoromethyl)-1H-pyrazol-4-yl)imidazo[1,2-a]pyrazin-8-yl)amino) benzamide formate] | 0.18
11 | CCc1cc(Nc2nccn3c(-c4cn(CC(F)F)nc4C(F)F)cnc23)ccc1C(=O)N[C@H]1C[C@@H](NC(=O)[C@@H]2C[C@@H](O)CN2)C1 [Example 552, (2S,4R)-N-((1s,3R)-3-(4-((3-(1-(2,2-difluoroethyl)-3-(difluoromethyl)-1H-pyrazol-4-yl)imidazo[1,2-a]pyrazin-8-yl)amino)-2-ethylbenzamido)cyclobutyl)-4-hydroxypyrrolidine-2-carboxamide] | 0.489
12 | C#CCNCCCCNC(=O)c1c(C)cc(Nc2nccn3c(-c4c[nH]nc4C(F)(F)F)cnc23)cc1F [Example 783, 2-fluoro-6-methyl-N-(4-(prop-2-yn-1-ylamino)butyl)-4-((3-(3-(trifluoromethyl)-1H-pyrazol-4-yl)imidazo[1,2-a]pyrazin-8-yl)amino)benzamide] | 1.21
13 | CCc1cc(Nc2nccn3c(-c4c[nH]nc4C(F)(F)F)cnc23)ccc1C(=O)NCCC1(N)CC1 [Example 263, N-[2-(1-aminocyclopropyl)ethyl]-2-ethyl-4-[[3-[3-(trifluoromethyl)-1H-pyrazol-4-yl]imidazo[1,2-a]pyrazin-8-yl]amino]benzamide] | 2.43
14 | Cc1cc(Nc2nccn3c(-c4cn(CC(F)F)nc4C(F)(F)F)cnc23)cc(F)c1C(=O)N[C@H](C)CN [Example 704, (R)-N-(1-aminopropan-2-yl)-4-((3-(1-(2,2-difluoroethyl)-3-(trifluoromethyl)-1H-pyrazol-4-yl)imidazo[1,2-a]pyrazin-8-yl)amino)-2-fluoro-6-methylbenzamide] | 0.386
15 | N#CCNC(=O)c1ccc(Nc2nccn3c(-c4cn(CC#N)nc4C(F)(F)F)cnc23)cc1Cl [Example 231, 2-chloro-N-(cyanomethyl)-4-[[3-[1-(cyanomethyl)-3-(trifluoromethyl)pyrazol-4-yl]imidazo[1,2-a]pyrazin-8-yl]amino]benzamide] | 0.102

More lines, now with the values ahead:

Row | IC90 [µM] | Compound
16 | 0.322 | O=C(CC1CNC1)N1CCN(C(=O)c2ccc(Nc3nccn4c(-c5c[nH]nc5C(F)(F)F)cnc34)cc2Cl)CC1 [Example 133, 2-(azetidin-3-yl)-1-[4-[2-chloro-4-[[3-[3-(trifluoromethyl)-1H-pyrazol-4-yl]imidazo[1,2-a]pyrazin-8-yl]amino]benzoyl]piperazin-1-yl]ethanone]
17 | 0.27 | N#CCn1cc(-c2cnc3c(Nc4ccc(C(=O)N5CC6(CN(C(=O)CN)C6)C5)c(Cl)c4)nccn23)c(C(F)(F)F)n1 [Example 659, 2-(4-(8-((3-chloro-4-(6-glycyl-2,6-diazaspiro[3.3]heptane-2-carbonyl)phenyl)amino)imidazo[1,2-a]pyrazin-3-yl)-3-(trifluoromethyl)-1H-pyrazol-1-yl)acetonitrile]
18 | 0.509 | N#CCn1cc(-c2cnc3c(Nc4ccc(C(=O)N5CC(NC(=O)N[C@@H]6CCNC6)C5)c(Cl)c4)nccn23)c(C(F)(F)F)n1 [Example 171, 1-[1-[2-chloro-4-[[3-[1-(cyanomethyl)-3-(trifluoromethyl)pyrazol-4-yl]imidazo[1,2-a]pyrazin-8-yl]amino]benzoyl]azetidin-3-yl]-3-[(3R)-pyrrolidin-3-yl]urea]
19 | 0.161 | NCC(=O)N1CCN(C(=O)c2ccc(Nc3nccn4c(-c5cn(C(F)F)nc5C(F)(F)F)cnc34)cc2Cl)CC1 [Example 78, 2-amino-1-[4-[2-chloro-4-[[3-[1-(difluoromethyl)-3-(trifluoromethyl)pyrazol-4-yl]imidazo[1,2-a]pyrazin-8-yl]amino]benzoyl]piperazin-1-yl]ethanone]
20 | 0.449 | O=C(c1ccc(Nc2nccn3c(-c4c[nH]nc4C(F)(F)F)cnc23)cc1Cl)N1CCNCC1 [Example 431, [2-chloro-4-[[3-[3-(trifluoromethyl)-1H-pyrazol-4-yl]imidazo[1,2-a]pyrazin-8-yl]amino]phenyl]-piperazin-1-ylmethanone]
21 | 1.02 | CCc1cc(Nc2nccn3c(-c4cn(CC(F)F)nc4C(F)F)cnc23)ccc1C(=O)N1CCN(C(=O)[C@@H](C)N)CC1 [Example 777, (R)-2-amino-1-(4-(4-((3-(1-(2,2-difluoroethyl)-3-(difluoromethyl)-1H-pyrazol-4-yl)imidazo[1,2-a]pyrazin-8-yl)amino)-2-ethylbenzoyl)piperazin-1-yl)propan-1-one]
22 | 0.245 | N#CCn1cc(-c2cnc3c(Nc4ccc(C(=O)N5CCN(C(=O)[C@H]6CCNC6)CC5)c(Cl)c4)nccn23)c(C(F)(F)F)n1 [Example 190, 2-[4-[8-[3-chloro-4-[4-[(3S)-pyrrolidine-3-carbonyl]piperazine-1-carbonyl]anilino]imidazo[1,2-a]pyrazin-3-yl]-3-(trifluoromethyl)pyrazol-1-yl]acetonitrile]
23 | 0.918 | CCc1cc(Nc2nccn3c(-c4c[nH]nc4C(F)(F)F)cnc23)ccc1C(=O)N1CCN(C(=O)C2CCNCC2)CC1 [Example 354, [2-ethyl-4-[[3-[3-(trifluoromethyl)-1H-pyrazol-4-yl]imidazo[1,2-a]pyrazin-8-yl]amino]phenyl]-[4-(piperidine-4-carbonyl)piperazin-1-yl]methanone hydrochloride]
24 | 0.269 | NCC(=O)N1CC2(C1)CN(C(=O)c1ccc(Nc3nccn4c(-c5c[nH]nc5C(F)(F)F)cnc34)cc1Cl)C2 [Example 658, 2-amino-1-(6-(2-chloro-4-((3-(3-(trifluoromethyl)-1H-pyrazol-4-yl)imidazo[1,2-a]pyrazin-8-yl)amino)benzoyl)-2,6-diazaspiro[3.3]heptan-2-yl)ethan-1-one]

Same assay, conditions: strain ATCC 17961, OD600 growth over 16 h, read-out: A. baumannii ATCC 17961 IC90

Row | Compound | IC90 [µM]
25 | N#CCn1cc(-c2cnc3c(Nc4ccc(C(=O)NCCO)c(Cl)c4)nccn23)c(C(F)(F)F)n1 [Example 234, 2-chloro-4-[[3-[1-(cyanomethyl)-3-(trifluoromethyl)pyrazol-4-yl]imidazo[1,2-a]pyrazin-8-yl]amino]-N-(2-hydroxyethyl) benzamide] | 0.189
